Patent US20080255206A1, “Rxr Agonists and Antagonists, Alone or in Combination with Ppar Ligands, in the Treatment of Metabolic and Cardiovascular Diseases” (priority 2005, published 2008)

What was measured:
db/db mice = assay: Investigation with db/db mice (blood glucose and lipids); type: in vivo, mouse; conditions: for Glucose Diff. D o − D 12 / HDL-cholesterol Diff. D o − D 12 / Total cholesterol Diff. D o − D 12 / Triglycerides Diff. D o − D 12: change day 0 to day 12; for Glucose D o / HDL-cholesterol D o / Total cholesterol D o / Triglycerides D o: day 0; for Glucose D 12 / HDL-cholesterol D 12 / Total cholesterol D 12 / Triglycerides D 12: day 12; for Glucose D-4 / HDL-cholesterol D-4 / Total cholesterol D-4 / Triglycerides D-4: day −4; for Overall extent of the effect on blood levels of Glucose / Overall extent of the effect on blood levels of HDL-cholesterol / Overall extent of the effect on blood levels of Total cholesterol / Overall extent of the effect on blood levels of Triglycerides: 30 mg/kg/day group versus vehicle group
Protocol: The following compounds are investigated and compared to placebo (vehicle control).
The mentioned 3 compounds are tested in db/db mice during a time when diabetes is in a rapid developing stage. […] Each dosage group and the vehicle group comprise 7 mice. The suspensions used are prepared with peroxide free arachis oil as vehicle. Blood samples are collected by retro-orbital bleeding at days −4, 0 and 12. The blood levels of glucose, triglycerides, total cholesterol, and HDL-cholesterol are determined.
For evaluation of efficacy, the difference between the values of glucose, triglycerides, total cholesterol and HDL-cholesterol changing from day 0 to day 12 is determined and expressed in %. […] Overall evaluation consists in determining the efficacy of the compounds by calculating the whole extent of the effect expressed in %. […] This value is considered as a valuable indicator for the efficacy of the investigated compounds administered in a tolerated dose.

skin of rats = assay: Topical administration to the skin of rats (irritation); type: in vivo; conditions: concentrations up to 2.5%
rats = assay: 4-weeks toxicology study in rats, oral gavage; type: in vivo
Description: […]. […] This symptom of hair loss is observed, dose-dependently, with all doses. Clinical pathology is limited to minor disturbances.

[1] = Pharmacokinetics, daily oral gavage for 4 weeks in rats; type: in vivo
Protocol: Daily administration of compound 15 by oral gavage for 4 weeks in rats: Compound 15 is administered daily by oral gavage as an oily suspension in doses of 50, 250, 500 and 750 mg/kg/day for 4 weeks in rats. Plasma samples are taken 2 hours post dosing on days 1, 22 and 26 and analysed by a gradient HPLC method with UV detection. […] With the 250 mg/kg/day dosage, plasma levels change from 4945 ng/ml on day 1 to 4190 ng/ml on day 22 and to 4530 ng/ml on day 26. Exposure of the rats to compound 15 results in a dose-proportional way in the doses between 50 and 250 mg/kg/day.

[2] = system: myeloperoxidase (MPO) activity; assay: Semi chronic inflammation of mouse ears, MPO activity; type: in vivo, C57BL/6 mice; conditions: 11 d
Protocol: […] mice of the C57BL/6 strain are used. Inflammation is induced on mouse ears with either AtRA, 9-cis RA or TPA by topical application. Inflammation is measured objectively by determination of the activity of myeloperoxidase (MPO) being directly correlated to the infiltration of polymorphonuclear white blood cells and by the determination of mRNA expression of c-jun, a protein implicated in the AP-1 transduction pathway according to known methods, see e.g. P. L. Stanley et al., Skin Pharmacol. 4, 262-271 (1991) (MPO assay), N. Basset-Sequin et al., J. Invest. Dermatol. 94, 418-422 (1990), F. J. Rauscher et al., Cell 52, 471-480 […], P. Sassone-Corn et al., Nature 326, 507-510 (1987), and M. Pfahl, Endocr. Rev. 14, 651-658, 1993, which are incorporated by reference regarding the experimental method.
In the “acute inflammation” test, mice are treated topically (epicutaneously), orally or intraperitoneally, daily for 4 days. In the “semi chronic inflammation” test, mice are treated topically according to the schedules given below. For each experiment, a group of at least 4 mice of both sexes are used in the defined condition, regarding placebo, vehicle control, compound, topical formulation, oral formulation, dosage and concentration. The topical vehicle consists of ethanol/PEG 400/water (3:1:1).
The anti-inflammatory effect of topical RXR antagonists is tested by determination of myeloperoxidase activity in % of vehicle controls. The effect of the RXR antagonist compound 15 is also compared with the well known anti-inflammatory effect of the two corticosteroids, clobetasol dipropionate and betamethasone propionate. For induction of inflammation, AtRA and TPA are applied topically to the skin and the administration of the test compounds, the RXR antagonist compound 15 and the two corticosteroids are given in the following order, according to the schedule, described in: Skin Pharmacol 1991; 4 (4): 262-271, Stanley P L. et.al.: RA or TPA is administered on days 0, 2, 4, 7 and 9, compound 15 or corticosteroids are administered twice daily on day 7, day 8 and day 9 and once on day 10 in the morning. The mice are sacrificed on day 10 in the afternoon.

## CC1=C(/C=C/C2=C(/C=C/C(C)=C/C(=O)O)CCCCC2)C(C)(C)CCC1 [Compound 1, (2E,4E)-3-methyl-5-[2-[(E)-2-(2,6,6-trimethyl-1-cyclohexen-1-yl)ethenyl]-1-cyclohepten-1-yl]-2,4-pentadienoic acid]
db/db mice; 0.3 mg/kg/day i.p.
  Glucose Diff. D o − D 12: +57.5%
  HDL-cholesterol Diff. D o − D 12: −3.2%
  Total cholesterol Diff. D o − D 12: −14.1%
  Triglycerides Diff. D o − D 12: +25.4%
  Glucose D o: 207 mg/dL
  HDL-cholesterol D o: 3.78 mmol/L
  Total cholesterol D o: 4.27 mmol/L
  Triglycerides D o: 1.73 mmol/L
  Glucose D 12: 326 mg/dL
  HDL-cholesterol D 12: 2.69 mmol/L
  Total cholesterol D 12: 3.67 mmol/L
  Triglycerides D 12: 2.17 mmol/L
  Glucose D-4: 138 mg/dL
  HDL-cholesterol D-4: 2.65 mmol/L
  Total cholesterol D-4: 4.26 mmol/L
  Triglycerides D-4: 1.83 mmol/L
db/db mice; 3 mg/kg/day
  Glucose levels (in words): no significant change
  HDL-cholesterol levels (in words): not influenced
  Triglyceride levels (in words): hardly influenced
db/db mice; 3.0 mg/kg/day i.p.
  Glucose Diff. D o − D 12: +40.7%
  HDL-cholesterol Diff. D o − D 12: −19.6%
  Total cholesterol Diff. D o − D 12: −19.9%
  Triglycerides Diff. D o − D 12: +15.3%
  Glucose D o: 194 mg/dL
  HDL-cholesterol D o: 3.37 mmol/L
  Total cholesterol D o: 4.68 mmol/L
  Triglycerides D o: 1.83 mmol/L
  Glucose D 12: 273 mg/dL
  HDL-cholesterol D 12: 2.71 mmol/L
  Total cholesterol D 12: 3.75 mmol/L
  Triglycerides D 12: 2.11 mmol/L
  Glucose D-4: 155 mg/dL
  HDL-cholesterol D-4: 2.53 mmol/L
  Total cholesterol D-4: 4.25 mmol/L
  Triglycerides D-4: 1.85 mmol/L
db/db mice; 30 mg/kg/day
  Glucose levels (in words): decrease markedly
  HDL-cholesterol levels (in words): markedly increased
  Total cholesterol levels (in words): slightly higher
  Triglyceride levels (in words): decreasing significantly
db/db mice
  Overall extent of the effect on blood levels of Glucose: −62.5%
  Overall extent of the effect on blood levels of HDL-cholesterol: +18.4%
  Overall extent of the effect on blood levels of Total cholesterol: −16.6%
  Overall extent of the effect on blood levels of Triglycerides: −21.5%
db/db mice; 30 mg/kg/day i.p.
  Glucose Diff. D o − D 12: −12.3%
  HDL-cholesterol Diff. D o − D 12: +14.6%
  Total cholesterol Diff. D o − D 12: +7.8%
  Triglycerides Diff. D o − D 12: +0.6%
  Glucose D o: 335 mg/dL
  HDL-cholesterol D o: 2.94 mmol/L
  Total cholesterol D o: 4.21 mmol/L
  Triglycerides D o: 1.7 mmol/L
  Glucose D 12: 206 mg/dL
  HDL-cholesterol D 12: 3.37 mmol/L
  Total cholesterol D 12: 4.54 mmol/L
  Triglycerides D 12: 1.71 mmol/L
  Glucose D-4: 174 mg/dL
  HDL-cholesterol D-4: 2.46 mmol/L
  Total cholesterol D-4: 4.37 mmol/L
  Triglycerides D-4: 2.13 mmol/L
Skin of rats
  Irritation or inflammation of the skin: does not lead to irritation or inflammation of the skin

## CCCCOc1c(\C(C)=C/C=C/C(C)=C/C(=O)O)cc(C(C)(C)C)cc1C(C)(C)C [Compound 15, (2E,4E,6Z)-7-[2-butoxy-3,5-bis(1,1-dimethylethyl)phenyl]-3-methyl-2,4,6-octatrienoic acid]
db/db mice; 0.3 mg/kg/day i.p.
  Glucose Diff. D o − D 12: +20.8%
  HDL-cholesterol Diff. D o − D 12: −5.0%
  Total cholesterol Diff. D o − D 12: −5.7%
  Triglycerides Diff. D o − D 12: −0.6%
  Glucose D o: 226 mg/dL
  HDL-cholesterol D o: 3.00 mmol/L
  Total cholesterol D o: 4.05 mmol/L
  Triglycerides D o: 1.78 mmol/L
  Glucose D 12: 273 mg/dL
  HDL-cholesterol D 12: 2.85 mmol/L
  Total cholesterol D 12: 3.82 mmol/L
  Triglycerides D 12: 1.77 mmol/L
  Glucose D-4: 153 mg/dL
  HDL-cholesterol D-4: 2.43 mmol/L
  Total cholesterol D-4: 4.52 mmol/L
  Triglycerides D-4: 2.28 mmol/L
db/db mice; 3 mg/kg/day
  Glucose levels (in words): markedly lowers glucose levels
  HDL-cholesterol levels (in words): markedly raised
  Triglyceride levels (in words): markedly decreasing
db/db mice; 3.0 mg/kg/day i.p.
  Glucose Diff. D o − D 12: +4.1%
  HDL-cholesterol Diff. D o − D 12: +18.4%
  Total cholesterol Diff. D o − D 12: −11.1%
  Triglycerides Diff. D o − D 12: −44.9%
  Glucose D o: 270 mg/dL
  HDL-cholesterol D o: 2.88 mmol/L
  Total cholesterol D o: 3.95 mmol/L
  Triglycerides D o: 2.16 mmol/L
  Glucose D 12: 281 mg/dL
  HDL-cholesterol D 12: 3.41 mmol/L
  Total cholesterol D 12: 4.39 mmol/L
  Triglycerides D 12: 1.19 mmol/L
  Glucose D-4: 192 mg/dL
  HDL-cholesterol D-4: 2.47 mmol/L
  Total cholesterol D-4: 4.62 mmol/L
  Triglycerides D-4: 2.15 mmol/L
db/db mice; 30 mg/kg/day
  Glucose levels (in words): decrease markedly
  HDL-cholesterol levels (in words): markedly increased
  Total cholesterol levels (in words): slightly higher
  Triglyceride levels (in words): very strongly
db/db mice
  Overall extent of the effect on blood levels of Glucose: −58.0%
  Overall extent of the effect on blood levels of HDL-cholesterol: +14.2%
  Overall extent of the effect on blood levels of Total cholesterol: +14.9%
  Overall extent of the effect on blood levels of Triglycerides: −73.0%
db/db mice; 30 mg/kg/day i.p.
  Glucose Diff. D o − D 12: −8.8%
  HDL-cholesterol Diff. D o − D 12: +10.4%
  Total cholesterol Diff. D o − D 12: +6.1%
  Triglycerides Diff. D o − D 12: −50.9%
  Glucose D o: 294 mg/dL
  HDL-cholesterol D o: 3.07 mmol/L
  Total cholesterol D o: 4.27 mmol/L
  Triglycerides D o: 2.18 mmol/L
  Glucose D 12: 268 mg/dL
  HDL-cholesterol D 12: 3.39 mmol/L
  Total cholesterol D 12: 4.53 mmol/L
  Triglycerides D 12: 1.07 mmol/L
  Glucose D-4: 184 mg/dL
  HDL-cholesterol D-4: 2.45 mmol/L
  Total cholesterol D-4: 3.98 mmol/L
  Triglycerides D-4: 1.85 mmol/L
Skin of rats
  Irritation or inflammation of the skin: does not lead to irritation or inflammation of the skin
rats; 4 weeks oral gavage
  Haematology and clinical chemistry: No abnormalities in haematology, no abnormalities in clinical chemistry
  Histopathology: only some changes in the 500/750 mg/kg dose group
  Transaminases, triglycerides and cholesterol: No increase in transaminases, triglycerides, and cholesterol
rats; daily doses of 50, 250, 500, eventually 750 mg/kg, 4 weeks
  Tolerability, oral: well tolerated with the exception of patchy alopecia
[1]; 50 mg/kg/day, day 1
  Plasma level 2 hours post dosing: 2.205 µg/mL
[1]; 50 mg/kg/day, day 22
  Plasma level 2 hours post dosing: 2.235 µg/mL
[1]; 50 mg/kg/day, day 26
  Plasma level 2 hours post dosing: 2.505 µg/mL
[1]; 250 mg/kg/day, day 1
  Plasma level 2 hours post dosing: 4.945 µg/mL
[1]; 250 mg/kg/day, day 22
  Plasma level 2 hours post dosing: 4.19 µg/mL
[1]; 250 mg/kg/day, day 26
  Plasma level 2 hours post dosing: 4.53 µg/mL
[2]; At RA 0.05% + test compound 0.05% topical
  MPO activity (% vehicle treated mice): 184 ± 72 % vehicle treated mice
[2]; TPA 0.005% + test compound 0.05% topical
  MPO activity (% vehicle treated mice): 345 ± 81 % vehicle treated mice
